These are literature values, as cited in patent US20080280370A1, “METHODS AND COMPOSITIONS FOR DETECTING […] METABOLITES THEREOF” (priority 2007, published 2008).

In data set [1] the target is T1, EPSPS (enolpyruvylshikimate-3-phosphate synthase) enzyme (Arabidopsis thaliana, UniProt P05466).
T1 sequence (P05466 77-520): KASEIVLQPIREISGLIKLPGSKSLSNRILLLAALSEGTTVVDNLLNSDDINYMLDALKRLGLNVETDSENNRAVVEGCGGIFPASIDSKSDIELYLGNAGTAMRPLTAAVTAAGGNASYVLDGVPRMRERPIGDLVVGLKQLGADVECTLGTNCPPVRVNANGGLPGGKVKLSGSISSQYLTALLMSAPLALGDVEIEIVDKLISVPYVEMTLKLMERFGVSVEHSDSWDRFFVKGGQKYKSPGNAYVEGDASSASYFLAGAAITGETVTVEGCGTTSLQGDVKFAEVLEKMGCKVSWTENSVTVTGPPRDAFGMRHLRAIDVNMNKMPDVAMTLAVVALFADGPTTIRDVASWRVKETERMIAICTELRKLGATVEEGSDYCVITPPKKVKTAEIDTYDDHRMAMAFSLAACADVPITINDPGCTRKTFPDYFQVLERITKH
The following applies: enzyme required for biosynthesis of aromatic amino acids in plants.

In a further data set the test system is plants. The following applies: metabolite formed by glyat acetylation; Castle et al. (2004).

Take `O=C(O)CNCP(=O)(O)O` [glyphosate, N-(phosphonomethyl)glycine]: the “Effect on EPSPS enzyme” value in data set [1] was “inhibits”.

Regarding `CC(=O)N(CC(=O)O)CP(=O)(O)O` [N-acetylglyphosate, N-Acetyl-N-(phosphonomethyl)glycine], in the data set on plants, the Phytotoxicity result is “non-phytotoxic”.
